Test results published in paper PMC6946680, “Modulation of brain cation-Cl^− cotransport via the SPAK kinase inhibitor ZT-1a” (Nature Communications, 2020).
Values joined by “and” are separate entries in the source; they are usually repeats but may differ in a detail not shown here. Equal values may be shown once.

Assays:
SPAK phosphorylation = experiment: Pharmacodynamic study, SPAK phosphorylation in brain of naive mice; assay type: in vivo, mouse; conditions: Fig S8a (brain); 50 mg/kg
Description: (§1) To define ZT-1a efficacy in naive mice in vivo, we examined phosphorylation of SPAK, NKCC1, and NCC in kidney, and phosphorylation of SPAK, NKCC1, and KCC3 in brain, after intraperitoneal (i.p.) administration of either ZT-1a (10, 30, 50, and 100 mg/kg) or Closantel (50 mg/kg as a reference). […]
(§2) 5. Pharmacodynamic (PD) study
(§3) Male C57BL/6j wild-type mice (6 weeks old, Charles River Laboratories Edinburgh UK) were treated with ZT-1a (in DMSO, Sigma) by subcutaneous injection at doses of 0, 3, 10, 30, 50 and 100 mg/kg. 50 mg/kg Closantel was administered as a comparative control. Vehicle control mice were treated with an equal volume of DMSO solution. One hour after administration, mice were sacrificed by cervical dislocation, and kidney and brain tissues were rapidly dissected and snap-frozen in liquid nitrogen. Age- […]
(§4) free conditions at the University of Dundee (UK) as described in our recent study1. Animal experiments and breeding were approved by the University of Dundee ethical committee and performed under a […]
(§5) Policy on the Care, Welfare and Treatment of Animals, and regulations set by the University of Dundee and the U.K. Home Office. […]
(§6) Brain and kidney tissues were collected at 60 min post injection, and proteins subjected to immunoblot were probed with antibodies specific for phosphorylated forms of SPAK,

NCC pThr46/50/55/60 = experiment: Pharmacodynamic study, NCC phosphorylation in kidney of naive mice; assay type: in vivo, mouse; conditions: Fig S8b (kidney); 50 mg/kg
Description: as §1, §2, §3, §4, §5, §6

KCC3 pThr1048 = experiment: Immunoblot of KCC site 2 phosphorylation (KCC3 Thr1048) in HEK-293 cells transfected with FLAG-KCC3; assay type: cell-based, human; conditions: single replicates
[1] = system: regional cerebral blood flow; experiment: Regional cerebral blood flow by laser speckle contrast imaging after tMCAO; assay type: in vivo, mouse; conditions: single mice
Description: Regional cerebral blood flow was measured using a two-dimensional laser speckle contrast analysis system (PeriCam PSI High Resolution with PIMSoft, Perimed)[65]. Isoflurane-anesthetized mice were head-fixed using stereotaxic equipment during imaging. The skin was retracted to expose the intact skull. Images were taken at 19 frames/second with averaging. Average signal intensity was taken from fixed-size (0.5-mm^2) regions of interest drawn over the parietal bone plate on the ipsi (IL)- and contralateral (CL) sides. Percent perfusion values were taken in comparison with the mean values of the pre-ischemic ipsilateral side. Five consecutive images at each time period per animal were averaged for analysis. […]
cerebral blood flow (rCBF) in ischemic mice. a and d Representative two-dimensional laser speckle contrast images of rCBF. Vehicle (DMSO), ZT-1a (A, 2.5 mg/kg), or Closantel (D, 1.25 mg/kg, i.p.) was administered i.p. at 3 hr and again at 8 hr post-reperfusion after MCAO. Pseudocolor scale bar indicates relative signal intensity. b and e No changes of rCBF were detected in the non-ischemic […]
contralateral (CL) hemispheres of vehicle-control or ZT-1a-treated (b) or Closantel-treated mice (e).
Data are mean ± SD, n = 3. c and f Similar reductions and recoveries of rCBF in the ischemic ipsilateral hemispheres (IL) were detected in the ZT-1a-treated (c) or Closantel-treated ischemic mice (f), and neither differed from vehicle-injected mice. Data are mean ± SEM, n = 3.

NKCC1 pThr203/207/212 = experiment: Pharmacodynamic study, NKCC1 phosphorylation in brain of naive mice; assay type: in vivo, mouse
Description: as §1, §2, §3, §4, §5, §6

[2] = system: mouse model of ischemic stroke (tMCAO); experiment: Infarct volume and hemispheric swelling (TTC) 24 h after tMCAO; assay type: in vivo; conditions: for Infarct volume (mm3): Fig 9b; for Infarct volume (mm3) / Hemisphere swelling (%): individual mice; for Hemisphere swelling (%): Fig 9c

Cc1cc(C(C#N)c2ccc(Cl)cc2)c(Cl)cc1NC(=O)c1cc(I)cc(I)c1O (stereo not drawn) [Closantel, reference compound]
pSer373 / SPAK (SPAK phosphorylation): 0.54 and 0.68 and 0.62 and 0.52
pTh46.50.55 / NCC (NCC pThr46/50/55/60): 0.81 and 1.06 and 0.69 and 0.76
T1007/KCC2 band intensity ratio (KCC3 pThr1048; Hypotonic low Cl, 1 uM): 0.34 and 0.36 and 0.343 and 0.37
T1007/KCC2 band intensity ratio (KCC3 pThr1048; Hypotonic low Cl, 3 uM): 0.16 and 0.144 and 0.163 and 0.152
T1007/KCC2 band intensity ratio (KCC3 pThr1048; Hypotonic low Cl, 10 uM): 0.113 and 0.046 and 0.08 and 0.1
T1007/KCC2 band intensity ratio (KCC3 pThr1048; Isotonic control, 1 uM): 0.358 (2×) and 0.326 and 0.311
T1007/KCC2 band intensity ratio (KCC3 pThr1048; Isotonic control, 3 uM): 0.141 and 0.106 and 0.123 and 0.134
T1007/KCC2 band intensity ratio (KCC3 pThr1048; Isotonic control, 10 uM): 0.071 and 0.062 and 0.054 and 0.067
% CBF ([1]; Fig S10b/S10e, Pre): 100%
% CBF ([1]; Fig S10b/S10e, Reperfusion 10 min): 84% and 95% and 110%
% CBF ([1]; Fig S10b/S10e, Reperfusion 20 min): 94% and 89% and 92%
% CBF ([1]; Fig S10b/S10e, Reperfusion 3 h): 108% and 97% and 120%
% CBF ([1]; Fig S10b/S10e, Reperfusion 4 h): 105% and 104% and 110%
% CBF ([1]; Fig S10b/S10e, Reperfusion 24 h): 119% and 83% and 102%
% CBF ([1]; Fig S10b/S10e, mcao 10 min): 113% and 80% and 120%
% CBF ([1]; Fig S10b/S10e, mcao 20min): 111% and 75% and 88%
% CBF ([1]; Fig S10b/S10e, mcao 50 min): 111% and 76% and 90%
% CBF ([1]; Fig S10c/S10f, Pre): 100%
% CBF ([1]; Fig S10c/S10f, Reperfusion 10 min): 68% and 56%
% CBF ([1]; Fig S10c/S10f, Reperfusion 20 min): 65% and 75% and 58%
% CBF ([1]; Fig S10c/S10f, Reperfusion 3 h): 88% and 84% and 92%
% CBF ([1]; Fig S10c/S10f, Reperfusion 4 h): 101% and 92% and 90%
% CBF ([1]; Fig S10c/S10f, Reperfusion 24 h): 120% and 101% and 104%
% CBF ([1]; Fig S10c/S10f, mcao 10 min): 34% and 30% and 35%
% CBF ([1]; Fig S10c/S10f, mcao 20min): 37% and 32% and 33%
% CBF ([1]; Fig S10c/S10f, mcao 50 min): 34% and 33%
NKCC1 phosphorylation (pThr203/207/212) in naive brains (NKCC1 pThr203/207/212; 60 min after administration): neither drug had reduced
pTh203.207.212 / NKCC1 (NKCC1 pThr203/207/212; Fig S8a (brain), 50 mg/kg): 0.63 and 0.62 and 0.71 and 0.68
infarct volume and hemispheric swelling ([2]; Closantel 0.1 mg/kg): ineffective
infarct volume and hemispheric swelling ([2]; Closantel 1.0 or 2.5 mg/kg at 3 and 8 h post reperfusion): reduced infarct volume and hemispheric swelling in a dose-dependent manner
Infarct volume (mm3) ([2]; group Closantel 0.1): 52.64 mm3 and 37.67 mm3 and 66.15 mm3 and 91.58 mm3 and 31.83 mm3 and 54.68 mm3 and 37.74 mm3 and 60.16 mm3
Infarct volume (mm3) ([2]; group Closantel 1.0): 45.07 mm3 and 60.3 mm3 and 40.86 mm3 and 27.89 mm3 and 44.96 mm3 and 50.26 mm3 and 35.08 mm3 and 36.9 mm3
Infarct volume (mm3) ([2]; group Closantel 2.5): 19.91 mm3 and 50.06 mm3 and 19.99 mm3 and 41.45 mm3 and 32.49 mm3
Hemisphere swelling (%) ([2]; group Closantel 0.1): 17.46% and 13.77% and 21.57% and 18.71% and 11.16% and 11.73% and 9.03% and 12%
Hemisphere swelling (%) ([2]; group Closantel 1.0): 14.03% and 8.76% and 11.37% and 10.48% and 8.67% and 13.59% and 10.61% and 15.28%
Hemisphere swelling (%) ([2]; group Closantel 2.5): 3.84% and 16.57% and 8.91% and 6.76% and 4.41%
